From patent US20110105389A1 (priority 2009, published 2011) come the findings set out here.

The test deals with male ob/ob mice. Kind of test: Subchronic oral administration in male ob/ob mice (7, 15 and 28 day protocols), Method B15. It is filed as in vivo, mouse. From the text: B15. Effects of Subchronic Administration of Compounds of the Invention in Male ob/ob Mice
The objective of this study is to determine the subchronic effects of test compounds on body weight change, food and water consumption, as well as glucose homeostasis and insulin levels in male ob/ob mice upon oral administration for up to 7 days. The male ob/ob mouse was selected as a type 2 diabetes (T2DM) and genetically defined obesity model which is sensitive to the effect of different insulin sensitizers in acute as well as in chronic settings.
A similar study in this model was conducted to determine the acute and subchronic effects of test compounds on body weight change, food and water consumption, glucose homeostasis, insulin and glucagon levels, as well as lipid profile and brain penetration upon oral administration to the male ob/ob mice for up to 28 days.
Mice were individually housed in rodent cages with soft wood bedding on the bottom and equipped with water bottles. All cages were clearly labeled with a cage card indicating study number, group, animal number and dose level. Each animal was uniquely identified by an animal number marked on their tail with indelible ink. The animal number was designated the day the animals arrive at the animal facility. The animal room environment was controlled (targeted ranges: temperature 22±2° C.; relative humidity 50±10%; light/dark cycle: 12 hours light, 12 hours dark, lights on from 06:00 AM to 06:00 PM). A regular rodent diet (Charles River 5075 rodent chow, Purina Mills, Canada) was provided to the animals ad libitum. Municipal tap water was provided to the animals ad libitum via water bottles. Fresh tap water was provided after water bottle weighing. An acclimation period of approximately 7 days for all groups was allowed between the receipt of animals and the start of treatment to accustom the […] to the laboratory environment. On experimental Day −7, animals were stratified according to body weight and glycemia into an appropriate number of groups of 5 or 10 animals and two groups of 5 animals.
Test compounds were administered, as a solution, orally, at the doses indicated. The dose volume will be 5 mL/kg/day. Groups were dosed once daily around 4:00 p.m. As positive controls, rosiglitazone (Avandia®), an approved anti-diabetic drug of the thiazolidinediones family (ppar gamma agonist) which has been specifically reported to normalize glycemia in the ob/ob mouse model (Liu et al., J. Med. Chem.; 46: 2093-2103, 2003) was used. The CB1 receptor antagonist rimonabant (Accomplia®) was reported to reduce body weight and food intake in different models of Type 2 diabetes and obesity and was also employed (Rasmussen and Huskinson Behavioral Pharmacol. 2008, 19, 735-742,; Bobo, G.; et al. Hepathology 2007, 46, 122-129; Di Marzo; et al., Nature 2001, 410, 822-825).
For, the study animals, the data collected from study Day −7 to Day 8 were reported. Body weights were recorded for all animals on Day −7 prior to initiation of dosing, at the time of group assignment and daily throughout the study period (Day 1-8). Food and water intake was Measured 4 hrs post-dosing, 2 hrs after the beginning of the dark cycle (around 8:00 p.m.) on Day 1 and 7 (Subset A) as well as on Day 2 and 8 (Subset B) and then daily in 24 h intervals from Day 3 through Day 8. On Day 1 (Subset A) and Day 2 (Subset B), blood was sampled from 3 animals/group from Groups 2 through 4 into EDTA coated tubes (K2-EDTA microtainer tubes, Becton Dickinson) from a tail vein (˜100 μL) 4 hrs post-dose for PK analysis. Blood was centrifuged at 4000 rpm for 10 min. at 4° C., and the resulting plasma transferred into non-coated tubes and stored at −80° C. until analysis. The same procedures were repeated on Day 7 (Subset A) and Day 8 (Subset B) 24 hrs post-dose. […]

Setting [1] is: vs vehicle control mice, FIG. 13.

For `CC(C)[C@@H]1NCCOc2ccccc2C#CCNC(=O)[C@@H](Cc2ccccc2)NC(=O)[C@H](C(C)O)N(C)C1=O` (stereo partly shown) [Compound 1712], for the setting “over a 2 hr period, fasted animals, vs vehicle control, FIG. 11”, the “acute cumulative food intake” value is “significantly reduced”.

For `CC(C)[C@@H]1NCCOc2ccccc2C2CCC(C2)NC(=O)[C@@H](Cc2ccccc2)NC(=O)[C@H](C(C)O)N(C)C1=O` (stereo partly shown) [Compound 1848], the “blood glucose levels during oral glucose tolerance test” value (75 mg/kg, vs vehicle control) was “significant decrease”. In addition, the “reduction in cumulative food intake” value (po, 75 mg/kg, 336 h) worked out at 11.9%. Also, for the setting “treated ob/ob mice”, the insulin sensitivity result was “improvement”. For the same molecule, under setting [1], the “free fatty acids (FFAs)” value is “significantly reduced”, the glucagon result was “significantly reduced”, the insulin result was “significantly reduced” and the non-fasting glucose result is “significantly reduced”. Further, under setting [1], the “total cholesterol level significantly reduced” value is “not” and the “triglycerides level significantly reduced” value is listed as “not”.
